The results in this text go back to article PMC3566764, “Thioester derivatives of the natural product psammaplin A as potent histone deacetylase inhibitors” (Beilstein Journal of Organic Chemistry, 2013).

Series [1] relates to WI38 (normal human lung fibroblast). The series can be described thus: Cytotoxicity against WI38 cell line. The series is classed as cell-based. The following applies: Homo sapiens, WI-38; WI38 cells. Here is the method: (§1) Thioesters 7–9 were assayed against A549, MCF7 and WI38 cell lines, in addition to recombinant human rHDAC1 (class I) and recombinant human HDAC6 (rHDAC6, class II) as previously reported. Psammaplin A (3), prereduced psammaplin A thiol (4), and SAHA (1) were included as control compounds. IC50^6/1 is defined by the ratio IC50^HDAC6/IC50^HDAC1 and was used as an indicator of isoform selectivity in vitro.

A short description of series [2]: Thioester hydrolysis in assay buffer, thiol detection with fluorescent coumarin probe 10. The following applies: incubation with probe 10 in buffer FB-188, up to 100 minutes. The series is classed as physicochemical. From the text: We therefore undertook preliminary studies to attempt to shed light on the reasons for the high potency of our thioesters in the enzymatic assays. We first envisaged that our assay buffer could potentially be responsible for thioester hydrolysis. We prepared and used synthetic probe 10 [30] (Scheme 3) in order to test this hypothesis. Coumarin-based probe 10 is known to react extremely fast with thiols through a Michael addition reaction. While the fluorescence of 10 is efficiently quenched by the intramolecular double bond, upon reaction with thiols, a highly fluorescent conjugate 11 is produced.
[formula] […] Bottom left: Fluorescence intensity at 465 nm (Y-axis, A.U.) as a function of the number of equivalents of 2-mercaptoethanol added (X-axis). Bottom right: Fluorescence intensity at 465 nm (Y-axis, A.U.) as a function of the incubation time (X-axis, minutes) of probe 10 with thioester 8.
Control experiments were performed using 2-mercaptoethanol as the thiol source. Fluorescence spectra of 10 (10^−6 M 10 in buffer FB-188 [31]) were recorded after incubation with 0, 0.2, 0.4, 0.6, 0.8, 1.0 and 1.5 equiv 2-mercaptoethanol (Scheme 3, bottom left). As expected, a linear relationship between fluorescence intensity and the concentration of thiol could be observed between 0 and 1.0 equiv, confirming the sensitivity and reliability of this system at low concentration. […]

The target in series [3] is T1, recombinant human HDAC6 (rHDAC6) (Homo sapiens, UniProt Q9UBN7).
T1 construct: purchased BPS Bioscience (US)
T1 sequence (Q9UBN7 1-1215): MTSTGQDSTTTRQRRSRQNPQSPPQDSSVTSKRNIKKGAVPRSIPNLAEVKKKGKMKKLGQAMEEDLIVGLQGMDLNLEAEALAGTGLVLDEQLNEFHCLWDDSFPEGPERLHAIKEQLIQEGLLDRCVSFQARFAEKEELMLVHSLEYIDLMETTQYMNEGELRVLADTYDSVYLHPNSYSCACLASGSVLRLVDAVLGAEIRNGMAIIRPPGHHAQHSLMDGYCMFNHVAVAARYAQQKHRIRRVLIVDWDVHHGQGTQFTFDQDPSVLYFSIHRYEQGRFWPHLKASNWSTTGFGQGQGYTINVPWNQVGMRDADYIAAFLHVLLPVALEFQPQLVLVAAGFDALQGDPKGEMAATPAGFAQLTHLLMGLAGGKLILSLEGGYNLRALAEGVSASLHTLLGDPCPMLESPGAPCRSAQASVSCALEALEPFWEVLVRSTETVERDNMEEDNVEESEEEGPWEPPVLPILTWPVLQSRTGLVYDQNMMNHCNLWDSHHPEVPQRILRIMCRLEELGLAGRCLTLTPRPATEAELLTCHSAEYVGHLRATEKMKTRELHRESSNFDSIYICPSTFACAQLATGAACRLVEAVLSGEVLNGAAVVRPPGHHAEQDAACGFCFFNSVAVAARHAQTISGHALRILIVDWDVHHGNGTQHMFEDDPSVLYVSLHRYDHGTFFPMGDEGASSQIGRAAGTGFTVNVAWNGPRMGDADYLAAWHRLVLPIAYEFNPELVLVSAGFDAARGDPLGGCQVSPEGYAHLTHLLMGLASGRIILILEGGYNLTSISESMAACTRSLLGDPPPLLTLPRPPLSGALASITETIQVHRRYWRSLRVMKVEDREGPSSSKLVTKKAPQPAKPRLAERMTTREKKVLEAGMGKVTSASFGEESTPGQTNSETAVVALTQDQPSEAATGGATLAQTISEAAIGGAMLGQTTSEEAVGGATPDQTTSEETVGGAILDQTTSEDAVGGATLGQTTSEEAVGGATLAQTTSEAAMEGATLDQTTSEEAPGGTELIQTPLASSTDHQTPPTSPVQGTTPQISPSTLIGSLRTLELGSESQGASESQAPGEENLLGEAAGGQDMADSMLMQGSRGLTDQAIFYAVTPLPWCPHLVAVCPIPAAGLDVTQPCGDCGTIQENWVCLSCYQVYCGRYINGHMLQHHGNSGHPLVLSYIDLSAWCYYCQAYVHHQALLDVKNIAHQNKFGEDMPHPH
The series can be described thus: rHDAC6 inhibition, coupled Boc-Lys(Ac)-AMC/trypsin fluorescence assay. Type of series: biochemical. The following applies: purified recombinant human HDAC6. The procedure: (§2) HDAC assays were performed as previously reported. The recombinant human histone deacetylases rHDAC1 and rHDAC6 were obtained from BPS Bioscience (US).
(§3) All reactions were performed in black half area 96-well microplates (Greiner bio-one, Germany) according to the general procedure described by Wegener et al. with some minor modifications. […] The buffer components were purchased from Merck (Germany), Roth (Germany) and Sigma-Aldrich.
(§4) The enzyme reaction was initiated by the addition of Boc-Lys(Ac)-AMC substrate. The reaction mixture was incubated at 30 °C in the dark and stopped after 60 min by the addition of a mixture of 70 µM trypsin and 200 nM SAHA. The fluorescence of AMC served as an indirect measure of HDAC enzyme activity. The kinetics of AMC release was measured on a PolarStar fluorescence plate reader (BMG) with an excitation wavelength of 340 nm and an emission wavelength of 460 nm. Complete cleavage of deacetylated Boc-Lys-AMC by trypsin was achieved after about 10–15 min. The fluorescence intensity of the plateau was averaged over at least 5 min and normalized with respect to the percentage of enzyme activity. Finally, the normalized fluorescence intensities were plotted versus the concentration of test compounds and fitted to a four-parameter logistic model to calculate the IC50 values.

The next series addresses T2, rHDAC1 (Homo sapiens, UniProt Q13547).
T2 construct: purchased BPS Bioscience (US)
The series can be described thus: rHDAC1 inhibition, coupled Boc-Lys(Ac)-AMC/trypsin fluorescence assay. Type of series: biochemical. Here is the method:
as §2, §3, §4

Series [4] relates to MCF7 (human breast carcinoma). The series is described as follows: Cytotoxicity against MCF7 cell line. The following applies: MCF7 cells. The series is classed as cell-based. The procedure:
as §1

Series [5] has as its system A549 (human lung carcinoma). The series is described as follows: Cytotoxicity against A549 cell line. Type of series: cell-based. To be noted: Homo sapiens; A549 cells. The procedure:
as §1

T2 sequence (Q13547 whole entry): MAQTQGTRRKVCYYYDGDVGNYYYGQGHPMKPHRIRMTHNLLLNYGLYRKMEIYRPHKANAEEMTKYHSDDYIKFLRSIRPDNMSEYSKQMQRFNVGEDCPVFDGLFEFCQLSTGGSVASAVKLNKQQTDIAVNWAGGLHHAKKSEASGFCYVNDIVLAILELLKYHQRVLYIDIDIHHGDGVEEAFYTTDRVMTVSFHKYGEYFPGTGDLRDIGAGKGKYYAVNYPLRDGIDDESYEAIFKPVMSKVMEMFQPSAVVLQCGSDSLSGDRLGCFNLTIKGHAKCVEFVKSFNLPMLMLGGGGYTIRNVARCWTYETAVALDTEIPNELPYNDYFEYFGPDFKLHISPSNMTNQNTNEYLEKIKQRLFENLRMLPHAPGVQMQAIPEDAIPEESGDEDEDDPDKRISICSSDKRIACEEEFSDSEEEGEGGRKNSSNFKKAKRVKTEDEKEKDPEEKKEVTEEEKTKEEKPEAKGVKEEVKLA

The IC50 is the point on the concentration scale where inhibition reaches its midpoint. For `COc1ccc(C/C(=N\O)C(=O)NCCSC(C)=O)cc1Br` [Compound 8, (E)-(S)-2-(3-(3-Bromo-4-methoxyphenyl)-2-(hydroxyimino)propanamido)ethyl ethanethioate], the IC50 in series [1] was found to be 5.2 µM; in series [3] it was 23 µM; at rHDAC1 (purified recombinant human HDAC1), 0.005 µM; in series [4], 3.2 µM; in series [5], 8.3 µM. In addition, in series [2], the “thiol formation (thioester hydrolysis) in assay buffer” value is reported as “no evidence of thiol formation”. The “IC50^6/1 (ratio IC50 HDAC6/IC50 HDAC1)” value on rHDAC1 (isoform selectivity in vitro) is 4560. In addition, the “times less potent than the corresponding free thiol analogue against rHDAC1” value at rHDAC1 (thioester vs free thiol) was 2.5 times.
